Results as given in patent US8268814B2, “Substituted sulfonamide compounds” (Gruenenthal GmbH, priority 2008, dated 2012).

Columns and labels:
[1] = target: T1, B1R receptor of the rat (rB1R) (Rattus norvegicus, UniProt P97583); experiment: Functional FLIPR Ca2+ assay on the bradykinin 1 receptor, rat (rB1R CHO K1 cells); assay type: cell-based; conditions: test substance 10 μM; CHO K1 cells transfected with rat B1R gene; agonist Des-Arg9-bradykinin at EC80; % inhibition compared with maximum achievable inhibition; read-out: B1R antagonism, rat [10 μM] % inhibition
T1 construct: expressed in transfected cells; host or cells: CHO K1 cells (Chinese hamster ovary), stably transfected
T1 sequence (P97583 1-337): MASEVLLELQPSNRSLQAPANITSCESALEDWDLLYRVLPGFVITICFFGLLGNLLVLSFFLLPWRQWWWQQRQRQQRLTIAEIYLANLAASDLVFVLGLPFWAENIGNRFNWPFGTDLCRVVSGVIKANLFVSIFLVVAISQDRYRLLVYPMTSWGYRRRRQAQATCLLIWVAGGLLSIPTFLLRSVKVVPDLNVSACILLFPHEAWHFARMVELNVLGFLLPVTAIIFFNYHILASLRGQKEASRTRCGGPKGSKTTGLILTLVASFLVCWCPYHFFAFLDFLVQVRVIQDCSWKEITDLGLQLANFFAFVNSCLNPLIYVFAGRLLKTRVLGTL
Protocol: (§1) The agonistic or antagonistic action of substances can be quantified on the bradykinin 1 receptor (B1R) of the human and rat species with ectopically expressing cell lines (CHO K1 cells) and with the aid of a Ca^2+-sensitive dyestuff (Fluo-4) in a fluorescent imaging plate reader (FLIPR). The figure in % activation is based on the Ca^2+ signal after addition of Lys-Des-Arg^9-bradykinin (0.5 nM) or Des-Arg^9-bradykinin (100 nM). Antagonists lead to a suppression of the Ca^2+ inflow after addition of the agonist. % inhibition compared with the maximum achievable inhibition is stated.
(§2) The agonistic or antagonistic action of substances can be determined on the bradykinin 1 receptor (B1R) of the human and rat species with the following assay. In accordance with this assay, the Ca^2+ inflow through the channel is quantified with the aid of a Ca^2+-sensitive dyestuff (type Fluo-4, Molecular Probes Europe BV, Leiden, Holland) in a fluorescent imaging plate reader (FLIPR, Molecular Devices, Sunnyvale, USA).
(§3) Chinese hamster ovary cells (CHO K1 cells) transfected stably with the human B1R gene (hB1R cells) or the B1R gene of the rat (rB1R cells) are used. For functional studies, these cells are plated out on black 96-well plates with a clear base (BD Biosciences, Heidelberg, Germany or Greiner, Frickenhausen, Germany) in a density of 20,000-35,000 cells/well. The cells are left overnight at 37° C. and 5% CO2 in culture medium (hB1R cells: Nutrient Mixture Ham's F12, Gibco Invitrogen GmbH, Karlsruhe, Germany or DMEM, Sigma-Aldrich, Taufkirchen, Germany; rB1R cells: D-MEM/F12, Gibco Invitrogen GmbH, Karlsruhe, Germany) with 10 vol. % FBS (foetal bovine serum, Gibco Invitrogen GmbH, Karlsruhe, Germany or PAN Biotech GmbH, Aidenbach, Germany). On the following day, the cells are loaded for 60 min at 37° C. with 2.13 μM Fluo-4 (Molecular Probes Europe BV, Leiden, Holland) in HBSS buffer (Hank's buffered saline solution, Gibco Invitrogen GmbH, Karlsruhe, Germany) with 2.5 mM probenecid (Sigma-Aldrich, Taufkirchen, Germany) and 10 mM HEPES (Sigma-Aldrich, Taufkirchen, Germany). The plates are then washed 2× with HBSS buffer, and HBSS buffer which additionally contains 0.1% BSA (bovine serum albumin; Sigma-Aldrich, Taufkirchen, Germany), 5.6 mM glucose and 0.05% gelatine (Merck KgaA, Darmstadt, Germany) is added. After a further incubation of 20 minutes at room temperature, the plates are inserted into the FLIPR for the Ca^2+ measurement.
(§4) Alternatively, the plates are washed with buffer A (15 mM HEPES, 80 mM NaCl, 5 mM KCl, 1.2 mM CaCl2, 0.7 mM MgSO4, 2 g/l glucose, 2.5 mM probenecid), buffer A is added and the plates are loaded with 2.5 μM Fluo-4 and 0.025% Pluronic F127 (Sigma-Aldrich, Taufkirchen, Germany). Thereafter, the cells are washed 2× with buffer A and incubated for 30 minutes with buffer A, which additionally contains 0.05% BSA and 0.05% gelatine, at room temperature and thereafter inserted into the FLIPR for the Ca^2+ measurement. The Ca^2+-dependent fluorescence is measured here before and after addition of substances (λex=488 nm, λem=540 nm). Quantification is by measurement of the highest fluorescence intensity (FC, fluorescence counts) over time.
(§5) The FLIPR protocol consists of 2 additions of substance. Test substances (10 μM) are first pipetted on to the cells and the Ca^2+ inflow is compared with the control (hB1R: Lys-Des-Arg^9-bradykinin >=50 nM; rB1R: Des-Arg^9-bradykinin 10 μM). This gives the figure in % activation based on the Ca^2+ signal after addition of Lys-Des-Arg^9-bradykinin (>=50 nM) or Des-Arg^9-bradykinin (10 μM). After incubation for 10-20 minutes, Lys-Des-Arg^9-bradykinin (hB1R) or Des-Arg^9-bradykinin (rB1R) in the concentration of the EC80 is applied and the inflow of Ca^2+ is likewise determined. Antagonists lead to a suppression of the Ca^2+ inflow. % inhibition compared with the maximum achievable inhibition is calculated. In order to determine the IC50 value, the substances are added in various concentrations. […]

[2] = target: T2, human B1R receptor (hB1R) (Homo sapiens, UniProt P46663); experiment: Functional FLIPR Ca2+ assay on the bradykinin 1 receptor, human (hB1R CHO K1 cells); assay type: cell-based; conditions: test substance 10 μM; CHO K1 cells transfected with human B1R gene; agonist Lys-Des-Arg9-bradykinin at EC80; % inhibition compared with maximum achievable inhibition; read-out: B1R antagonism, human (10 μM] % inhibition
T2 construct: expressed in transfected cells; host or cells: CHO K1 cells (Chinese hamster ovary), stably transfected
T2 sequence (P46663 1-353): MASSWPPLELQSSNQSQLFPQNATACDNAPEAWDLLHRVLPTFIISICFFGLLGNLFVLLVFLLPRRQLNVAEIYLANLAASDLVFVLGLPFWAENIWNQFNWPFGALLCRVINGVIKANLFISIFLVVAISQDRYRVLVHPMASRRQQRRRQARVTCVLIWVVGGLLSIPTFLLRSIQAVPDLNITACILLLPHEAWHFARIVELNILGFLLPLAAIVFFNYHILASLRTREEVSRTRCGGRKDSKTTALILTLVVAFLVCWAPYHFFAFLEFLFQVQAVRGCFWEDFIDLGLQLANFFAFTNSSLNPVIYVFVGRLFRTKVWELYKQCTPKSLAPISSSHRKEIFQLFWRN
Protocol: as §1, §2, §3, §4, §5

| SMILES | inhibition at 10 µM [1] [%] | inhibition at 10 µM [2] [%] |
| --- | --- | --- |
| COc1cc(C)c(S(=O)(=O)N2CCCCC2CCC(=O)N2CCc3onc(-c4ccncc4)c3C2)c(C)c1 (stereo not drawn) [Example 01, 3-(1-(4-Methoxy-2,6-dimethylphenylsulfonyl)piperidin-2-yl)-1-(3-(pyridin-4-yl)-6,7-dihydroisoxazolo[4,5-c]pyridin-5(4H)-yl)propan-1-one] | 98 | 46 |
| COc1cc(C)c(S(=O)(=O)N2CCCCC2COCC(=O)N2CCc3onc(-c4ccncc4)c3C2)c(C)c1 (stereo not drawn) [Example 02, 2-((1-(4-methoxy-2,6-dimethylphenylsulfonyl)piperidin-2-yl)methoxy)-1-(3-(pyridin-4-yl)-6,7-dihydroisoxazolo[4,5-c]pyridin-5(4H)-yl)ethanone] | 101 | 100 |
| O=C(C[C@@H](NS(=O)(=O)c1ccc2ccccc2c1)c1ccccc1)N1CCc2onc(-c3ccncc3)c2C1 [Example 03, I—N-(3-oxo-1-phenyl-3-(3-(pyridin-4-yl)-6,7-dihydroisoxazolo[4,5-c]pyridin-5(4H)-yl)propyl)naphthalene-2-sulfonamide] | 102 | 83 |
| O=C(CC1CCCCN1S(=O)(=O)c1cccc(C(F)(F)F)c1)N1CCc2onc(CN3CCCCC3)c2C1 (stereo not drawn) [Example 05, 1-(3-(piperidin-1-ylmethyl)-6,7-dihydroisoxazolo[4,5-c]pyridin-5(4H)-yl)-2-(1-(3-(trifluoromethyl)phenylsulfonyl)piperidin-2-yl)ethanone] | 27 | 48 |
| Cc1cc(S(=O)(=O)N2CCCCC2CCC(=O)N2CCc3onc(CN4CCCCC4)c3C2)c(C)cc1Cl (stereo not drawn) [Example 06, 3-(1-(4-chloro-2,5-dimethylphenylsulfonyl)piperidin-2-yl)-1-(3-(piperidin-1-ylmethyl)-6,7-dihydroisoxazolo[4,5-c]pyridin-5(4H)-yl)propan-1-one] | 57 | 93 |
| COc1cc(C)c(S(=O)(=O)N2CCCCC2COCC(=O)N2CCc3sccc3C2c2ccc(C)cc2)c(C)c1 (stereo not drawn) [Example 07, 2-((1-(4-methoxy-2,6-dimethylphenylsulfonyl)piperidin-2-yl)methoxy)-1-(4-p-tolyl-6,7-dihydrothieno[3,2-c]pyridin-5(4H)-yl)ethanone] | 104 | 69 |
| COc1cc(C)c(S(=O)(=O)N2CCCCC2COCC(=O)N2CCc3sccc3C2c2cccc(C)c2)c(C)c1 (stereo not drawn) [Example 08, 2-((1-(4-methoxy-2,6-dimethylphenylsulfonyl)piperidin-2-yl)methoxy)-1-(4-m-tolyl-6,7-dihydrothieno[3,2-c]pyridin-5(4H)-yl)ethanone] | 106 | 48 |
| COc1cc(C)c(S(=O)(=O)N2CCCCC2COCC(=O)N2CCc3onc(CN4CCCCC4)c3C2)c(C)c1 (stereo not drawn) [Example 09, 2-((1-(4-methoxy-2,6-dimethylphenylsulfonyl)piperidin-2-yl)methoxy)-1-(3-(piperidin-1-ylmethyl)-6,7-dihydroisoxazolo[4,5-c]pyridin-5(4H)-yl)ethanone] | 105 | 100 |

Further lines, results first:

| inhibition at 10 µM [1] [%] | inhibition at 10 µM [2] [%] | SMILES |
| --- | --- | --- |
| 105 | 78 | Cc1cccc(C2c3ccsc3CCN2C(=O)CCC2CCCCN2S(=O)(=O)c2cc(C)c(Cl)cc2C)c1 (stereo not drawn) [Example 10, 3-(1-(4-chloro-2,5-dimethylphenylsulfonyl)piperidin-2-yl)-1-(4-m-tolyl-6,7-dihydrothieno[3,2-c]pyridin-5(4H)-yl)propan-1-one] |
| 60 | 7 | Cc1cc(S(=O)(=O)N2CCCCC2CCC(=O)N2CCc3sccc3C2c2ccccc2C)c(C)cc1Cl (stereo not drawn) [Example 11, 3-(1-(4-chloro-2,5-dimethylphenylsulfonyl)piperidin-2-yl)-1-(4-o-tolyl-6,7-dihydrothieno[3,2-c]pyridin-5(4H)-yl)propan-1-one] |
| 104 | 64 | COc1cc(C)c(S(=O)(=O)N2CCCCC2COCC(=O)N2CCc3sccc3C2c2ccccc2C)c(C)c1 (stereo not drawn) [Example 12, 2-((1-(4-methoxy-2,6-dimethylphenylsulfonyl)piperidin-2-yl)methoxy)-1-(4-o-tolyl-6,7-dihydrothieno[3,2-c]pyridin-5(4H)-yl)ethanone] |
| 99 | 56 | COc1cc(C)c(S(=O)(=O)N(C)CCOCC(=O)N2CCc3onc(CN4CCCCC4)c3C2)c(C)c1 [Example 13, 4-methoxy-N,2,6-trimethyl-N-(2-(2-oxo-2-(3-(piperidin-1-ylmethyl)-6,7-dihydroisoxazolo[4,5-c]pyridin-5(4H)-yl)ethoxy)ethyl)benzenesulfonamide] |
| 99 | 85 | COc1cc(C)c(S(=O)(=O)N2CCCCC2COCC(=O)N2CCc3onc(C(=O)N4CCCCC4)c3C2)c(C)c1 (stereo not drawn) [Example 14, 2-((1-(4-methoxy-2,6-dimethylphenylsulfonyl)piperidin-2-yl)methoxy)-1-(3-(piperidin-1-carbonyl)-6,7-dihydroisoxazolo[4,5-c]pyridin-5(4H)-yl)ethanone] |
| 98 | 69 | COc1cc(C)c(S(=O)(=O)N2CCCCC2COCC(=O)N2CCc3sccc3C2c2ccccc2)c(C)c1 (stereo not drawn) [Example 15, 2-((1-(4-methoxy-2,6-dimethylphenylsulfonyl)piperidin-2-yl)methoxy)-1-(4-phenyl-6,7-dihydrothieno[3,2-c]pyridin-5(4H)-yl)ethanone] |
| 81 | 43 | Cc1cc(S(=O)(=O)N2CCCCC2CCC(=O)N2CCc3sccc3C2c2ccccc2)c(C)cc1Cl (stereo not drawn) [Example 16, 3-(1-(4-chloro-2,5-dimethylphenylsulfonyl)piperidin-2-yl)-1-(4-phenyl-6,7-dihydrothieno[3,2-c]pyridin-5(4H)-yl)propan-1-one] |
